# Assay: Evaluation of moisture-heat resistance: turbidity (crystal precipitation) in the transparent resin film
# Format: physicochemical
# Conditions: amount of 3.5 parts by mass or more
# Protocol: (Evaluation of Moisture-Heat Resistance)
# The transparent resin films A-1 to A-14 and B-1 to B-3 were aged for 20 days under moisture heat conditions of a temperature of 85° C. and a humidity of 85%, and the presence or absence of turbidity (crystal precipitation) in the transparent resin film was evaluated according to the following standards.
# (Evaluation Standards for Turbidity)
# A: Almost no change in appearance such as turbidity due to crystal precipitation is observed.
row,Compound,crystal precipitation
1,CCCCCCCCCOC(=O)/C(C#N)=C/C=C/N(CC)CC [UV-4],caused crystal precipitation
2,CCCCC(CC)COC(=O)/C(C#N)=C\C=C1/CCCN1C (centres unmarked) [UV-5],caused crystal precipitation

# Reference: patent US20220119688A1, “LAMINATE, LIQUID CRYSTAL DISPLAY DEVICE, AND ORGANIC ELECTROLUMINESCENT DISPLAY DEVICE” (FUJIFILM Corporation, priority 2019, published 2022)
